Assay results from EP0937779A2, “Cell damage marker” (ORIENTAL YEAST CO., LTD., priority 1998, dated 1999).
Where two headings read alike, the source gives them in different places.

Tests used:
Type in all cases: biochemical
[1] = biological target: PGAM-M standard (based on pooled sera) (Homo sapiens, UniProt P15259); test: Effect of potassium tetrathionate on PGAM-M, automatic analysis method (NADH reduction rate assay)
Experimental: (§1) The reagent 1 (R-1; 250 µl) was mixed with a culture medium sample (5 µl), and the resulting mixture was then left to stand for 5 minutes. By subsequently using the reagent 2 (R-2), the PGAM activity was assayed.
(§2) Because the reagent 2 (R-2) contained glycerate-3-P (substrate), the reaction was initiated by adding 41 µl of the reagent 2. About 1.5 minutes after the addition of the reagent 2, the assay was started.
(§3) By using an automatic analyzer of Hitachi 7150 and by presetting the assay code to RATE-A: 32-39 and the assay temperature to 37 °C, the decrease of absorbance A at 340 nm was determined on the basis of the reduction of NADH for about 1.5 minutes. Additionally, a sub-wave length was set at 405 nm for the determination. Furthermore, the value of a conventionally known cell damage marker LDH (lactate dehydrogenase) is shown concurrently.
(§4) Prior to the assay of B-PGAM in the cell culture medium, the effect of potassium tetrathionate on PGAM-B and PGAM-M was examined by the automatic analysis method. As the sample, a type-B standard and a type-M standard (both based on pooled sera) were used. These standards were diluted with physiological saline to prepare 1/1 to 1/8 samples. Various concentrations of potassium tetrathionate were added to these samples for 5-min reaction, and subsequently, the amounts of the type-B and type-M PGAMs were determined by utilizing the automatic analysis method.
(§5) By using the reagents of Example 2, the amounts of PGAM-B and PGAM-M were individually determined by the automatic analysis method, and the results are shown below in Table 4. […]

[2] = biological target: PGAM-B standard (based on pooled sera) (Homo sapiens, UniProt P18669); test: Effect of potassium tetrathionate on PGAM-B, automatic analysis method (NADH reduction rate assay); settings: for remaining activity at 1900 µM: final potassium tetrathionate concentration 1.9 mM; for remaining activity at 1900 µM / remaining activity at 3800 µM / remaining activity at 7600 µM: 5-min reaction, read-out: Effect of potassium tetrathionate over PGAM-B (residual activity, 0 mM = 100); for remaining activity at 3800 µM: final potassium tetrathionate concentration 3.8 mM; for remaining activity at 7600 µM: final potassium tetrathionate concentration 7.6 mM
Sequence of PGAM-B standard (based on pooled sera) (P18669 whole entry): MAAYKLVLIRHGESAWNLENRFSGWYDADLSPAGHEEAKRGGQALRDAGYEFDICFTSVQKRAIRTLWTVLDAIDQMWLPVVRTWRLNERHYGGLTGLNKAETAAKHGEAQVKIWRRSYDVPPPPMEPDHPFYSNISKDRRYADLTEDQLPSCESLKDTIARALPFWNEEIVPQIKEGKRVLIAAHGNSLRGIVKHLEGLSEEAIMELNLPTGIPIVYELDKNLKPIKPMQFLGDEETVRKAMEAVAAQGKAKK
Experimental: as §1, §2, §3, §4, §5

type-B isozyme = type-B isozyme (Homo sapiens, UniProt P18669); test: Inhibition experiment over purified PGAM isozymes, type-B; settings: tetrathionic acid used as the PGAM inhibitor
Sequence of type-B isozyme (P18669 whole entry): as above
Text: (§6) The method for assaying PGAM in accordance with the invention will now be described about the case of the type-B isozyme. The method for assaying the type-B isozyme comprises treating a sample with a PGAM inhibitor to inactivate specific isozymes and assaying the remaining PGAM activity. […] By adding tetrathionic acid to serum to inactivate the type-M isozyme and subsequently assaying the residual PGAM activity, therefore, the type-B isozyme can be assayed separately.
(§7) At an inhibition experiment over purified PGAM isozymes, only 50 % of the type-MB isozyme is inactivated through the treatment with tetrathionic acid, so 50 % of the activity remains. Because the PGAM activity in normal serum and brain tissue is nearly totally derived from the type-B isozyme in a practical sense, the residual activity of the type-MB isozyme is negligible in biological samples.

type-MB isozyme = type-MB isozyme (Homo sapiens, UniProt P15259); test: Inhibition experiment over purified PGAM isozymes, type-MB; settings: treatment with tetrathionic acid
Sequence of type-MB isozyme (P15259 whole entry): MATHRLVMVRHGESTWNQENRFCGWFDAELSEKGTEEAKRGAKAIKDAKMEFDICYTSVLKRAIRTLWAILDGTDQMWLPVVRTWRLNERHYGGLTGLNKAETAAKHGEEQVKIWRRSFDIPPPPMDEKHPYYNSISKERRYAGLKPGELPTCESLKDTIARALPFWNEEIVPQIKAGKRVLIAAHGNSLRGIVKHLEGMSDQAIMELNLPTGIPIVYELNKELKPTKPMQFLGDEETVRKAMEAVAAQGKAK
Sequence of type-MB isozyme (P18669 whole entry, further chain): as the sequence (P18669 whole entry) above
Text: as §6, §7

type-M isozyme = type-M isozyme (Homo sapiens, UniProt P15259); test: Inhibition experiment over purified PGAM isozymes, type-M; settings: tetrathionic acid used as the PGAM inhibitor
Sequence of type-M isozyme (P15259 whole entry): as the sequence (P15259 whole entry) above
Text: as §6, §7

[3] = dilution ratio 1/1, 0 mM = 100 (183U/L)
[4] = dilution ratio 1/2, 0 mM = 100 (91U/L)
[5] = dilution ratio 1/4, 0 mM = 100 (46U/L)
[6] = dilution ratio 1/8, 0 mM = 100 (22U/L)

Sequence of PGAM-M standard (based on pooled sera) (P15259 whole entry): as above

Compound	remaining activity at 1900 µM ([1]; final potassium tetrathionate concentration 1.9 mM, dilution ratio 1/1, 5-min reaction, 0 mM = 100 (2727U/L), read-out: Effect of potassium tetrathionate over PGAM-M (residual activity, 0 mM = 100))	remaining activity at 3800 µM ([1]; final potassium tetrathionate concentration 3.8 mM, dilution ratio 1/1, 5-min reaction, 0 mM = 100 (2727U/L), read-out: Effect of potassium tetrathionate over PGAM-M (residual activity, 0 mM = 100))	remaining activity at 7600 µM ([1]; final potassium tetrathionate concentration 7.6 mM, dilution ratio 1/1, 5-min reaction, 0 mM = 100 (2727U/L), read-out: Effect of potassium tetrathionate over PGAM-M (residual activity, 0 mM = 100))	type-M isozyme inactivated with potassium tetrathionate (summary in words) ([1]; summary of Table 4)	remaining activity at 1900 µM [2, 3]	remaining activity at 1900 µM [2, 4]	remaining activity at 1900 µM [2, 5]	remaining activity at 1900 µM [2, 6]	remaining activity at 3800 µM [2, 3]	remaining activity at 3800 µM [2, 4]	remaining activity at 3800 µM [2, 5]	remaining activity at 3800 µM [2, 6]	remaining activity at 7600 µM [2, 3]	remaining activity at 7600 µM [2, 4]	remaining activity at 7600 µM [2, 5]	remaining activity at 7600 µM [2, 6]	type-B isozyme influenced by potassium tetrathionate (summary in words) ([2]; summary of Table 4)	type-B isozyme inactivated (in words) (type-B isozyme)	activity of the type-MB isozyme that remains (type-MB isozyme)	type-M isozyme inactivated (type-M isozyme)
O=S(=O)([O-])SSS(=O)(=O)[O-].[K+].[K+] [potassium tetrathionate]	0%	0%	0%	specifically inactivated	98%	98%	97%	93%	92%	91%	86%	93%	81%	80%	59%	75%	absolutely never influenced			
O=S(=O)(O)SSS(=O)(=O)O [tetrathionic acid]																		hardly inactivated	50%	~100%
